Read-outs that look alike come from different tables or passages of the source.
Experiments:
PARP7 enzyme = PARP7 enzyme (Homo sapiens (Human), UniProt Q7Z3E1); assay: PARP7 enzymatic experiment (HTRF assay); assay type: biochemical; details: 4PL fit
[1] = tested on: lung cancer cell line H1373 (high expression of PARP7); assay: Lung cancer cell proliferation inhibition experiment (CTG method); assay type: cell-based; details: H1373 cells, 144 hrs incubation, Cell Titer Glo
[2] = Mouse pharmacokinetic study; assay type: in vivo; details: Balb/c mouse; for clearance / Vd: iv; for Vd: read-out: Vss; for bioavailability: read-out: Oral BA (F %)
[3] = plasma, po, 100 mg/kg p.o. vs 3 mg/kg i.v.
[4] = plasma, po, single 100 mg/kg, p.o., read-out: Cmax
[5] = plasma, oral, 100 mg/kg p.o. vs 3 mg/kg i.v.

PARP7 enzyme, sequence (Q7Z3E1 456-657): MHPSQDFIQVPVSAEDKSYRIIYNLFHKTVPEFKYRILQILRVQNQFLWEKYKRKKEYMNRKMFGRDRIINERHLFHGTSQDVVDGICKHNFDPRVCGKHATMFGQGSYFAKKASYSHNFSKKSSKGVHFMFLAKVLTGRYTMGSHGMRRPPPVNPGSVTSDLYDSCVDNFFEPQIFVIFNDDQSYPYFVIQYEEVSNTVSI

Row | Compound | IC50 (PARP7 enzyme) | IC50 ([1]; Homo sapiens, NCI-H1373, 144 h) | also measured
1 | C[C@@H](COCCC(=O)N1CCN2c3ncc(Cl)cc3N(C)C(=O)[C@@H]2C1)Nc1cn[nH]c(=O)c1C(F)(F)F (single isomer, unassigned) [Compound 20A] | 0.00151 µM | 0.0539 µM | pharmacokinetic properties (in words) [2]: good pharmacokinetic properties
2 | CC(C)N1C(=O)[C@@H]2CN(C(=O)CCOC[C@H](C)Nc3cn[nH]c(=O)c3C(F)(F)F)CCN2c2ncc(C(F)(F)F)cc21 (single isomer, unassigned) [Compound 24A] | 0.00207 µM |  | pharmacokinetic properties (in words) [2]: good pharmacokinetic properties
3 | C[C@@H](COCCC(=O)N1CCN2c3ncc(C(F)(F)F)cc3SCC[C@@H]2C1)Nc1cn[nH]c(=O)c1C(F)(F)F (single isomer, unassigned) [Compound 71A] | 0.00153 µM |  | IC50 [1]: 0.0139 µM; pharmacokinetic properties (in words) [2]: good pharmacokinetic properties
4 | CCN1c2ncc(Cl)cc2OCC[C@@H]1CNC(=O)CCOC[C@@H](C)Oc1cn[nH]c(=O)c1C(F)(F)F (single isomer, unassigned) [Compound 84A] | 0.00101 µM |  | IC50 [1]: 0.0215 µM; Oral BA (F %) ([2]; 100 mg/kg p.o. vs 3 mg/kg i.v.): 106%; CL ([2]; single 3 mg/kg, i.v.): 41 mL/min/kg; Vss ([2]; single 3 mg/kg, i.v.): 0.5 L/kg; AUClast ([2]; single 100 mg/kg, p.o.): 43382 ng·h/mL; Cmax ([2]; single 100 mg/kg, p.o.): 15033 ng/mL
5 | Cc1c(Cl)cnc2c1OCC[C@@H]1CN(C(=O)CCOC[C@H](C)Oc3cn[nH]c(=O)c3C(F)(F)F)CCN21 (single isomer, unassigned) [Compound 85A] |  | 0.0207 µM | clearance ([2]; plasma, single 3 mg/kg): 60 mL/min/kg; Vd ([2]; plasma, single 3 mg/kg, i.v.): 0.5 L/kg; bioavailability [2, 3]: 301%; AUC(0-t) ([2]; plasma, po, single 100 mg/kg): 86100 ng·h/mL; Cmax [2, 4]: 24200 ng/mL
6 | C[C@@H](COCCC(=O)N1CCN2c3nc(F)c(Cl)cc3N(C)C(=O)[C@@H]2C1)Nc1cn[nH]c(=O)c1C(F)(F)F [Compound 14A] | 0.0106 µM |  | pharmacokinetic properties (in words) [2]: good pharmacokinetic properties
7 | C[C@@H](COCCC(=O)N1CCN2c3ncc(F)cc3N(C3CC3)C(=O)[C@@H]2C1)Nc1cn[nH]c(=O)c1C(F)(F)F [Compound 28A] | 0.00753 µM |  | IC50 [1]: 0.275 µM
8 | C[C@@H](COCCC(=O)N1CCN2c3ncc(F)cc3N(C3CC3)C(=O)[C@@H]2C1)Nc1cn[nH]c(=O)c1C(F)(F)F [Compound 28B] | 0.00787 µM |  | IC50 [1]: 0.761 µM
9 | Cc1c2n(c3ncc(C(F)(F)F)cc13)CCN(C(=O)CCOC[C@H](C)Oc1cn[nH]c(=O)c1C(F)(F)F)C2 [Compound 45] |  | 0.013 µM | pharmacokinetic properties (in words) [2]: good pharmacokinetic properties
10 | C[C@@H](COCCC(=O)N1CCn2c(cc3cc(C(F)(F)F)cnc32)C1)Oc1cn[nH]c(=O)c1C(F)(F)F [Compound 47A] |  | 0.0609 µM | clearance ([2]; plasma, single 3 mg/kg): 16 mL/min/kg; Vd ([2]; plasma, single 3 mg/kg, i.v.): 0.5 L/kg; bioavailability [2, 5]: 90%; AUC(0-t) ([2]; plasma, po, single 100 mg/kg): 95200 ng·h/mL; Cmax [2, 4]: 41100 ng/mL
11 | C[C@@H](COCCC(=O)N1CCN2c3ncc(C(F)(F)F)cc3OC[C@@H]2C1)Oc1cn[nH]c(=O)c1C(F)(F)F [Compound 51] |  |  | IC50 ([1]; Homo sapiens, NCI-H1373): 0.0346 µM; clearance ([2]; plasma, single 3 mg/kg): 22 mL/min/kg; Vd ([2]; plasma, single 3 mg/kg, i.v.): 0.5 L/kg; bioavailability [2, 5]: 121%; AUC(0-t) ([2]; plasma, po, single 100 mg/kg): 91400 ng·h/mL; Cmax [2, 4]: 38200 ng/mL
12 | C[C@@H](COC[C@@H](O)C(=O)N1CCN2c3ncc(Cl)cc3OCCC2C1)Nc1cn[nH]c(=O)c1C(F)(F)F (some centres unmarked) [Compound 64A] | 0.0015 µM | 0.208 µM | 
13 | CC(=O)c1c(N[C@@H](C)COCCC(=O)N2CCN3c4ncc(C(F)(F)F)cc4OCC3C2)cn[nH]c1=O (some centres unmarked) [Compound 69] | 0.00392 µM |  | IC50 [1]: 0.483 µM
14 | C[C@@H](COCCC(=O)N1CCN2c3ncc(Cl)cc3SCC[C@@H]2C1)Nc1cn[nH]c(=O)c1C(F)(F)F [Compound 73A] | 0.000769 µM | 0.0223 µM | 
15 | C[C@@H](COCCC(=O)N1CCN2c3ncc(C(F)(F)F)cc3[C@@](C)(O)[C@@H]2C1)Nc1cn[nH]c(=O)c1C(F)(F)F [Compound 79A] | 0.00725 µM | 0.572 µM | 
16 | C[C@@H](COCCC(=O)N1CCN2c3ncc(C(F)(F)F)cc3[C@](C)(O)[C@@H]2C1)Nc1cn[nH]c(=O)c1C(F)(F)F [Compound 79B] | 0.00467 µM | 0.341 µM | 
17 | C[C@@H](COCCC(=O)N1CCN2c3ncc(C(F)(F)F)cc3[C@@](C)(O)[C@H]2C1)Nc1cn[nH]c(=O)c1C(F)(F)F [Compound 79C] | 0.00477 µM | 0.456 µM | 

Row | Compound | IC50 (PARP7 enzyme) | IC50 ([1]; Homo sapiens, NCI-H1373, 144 h) | also measured
18 | C[C@@H](COCCC(=O)N1CCN2c3ncc(C(F)(F)F)cc3[C@](C)(O)[C@H]2C1)Nc1cn[nH]c(=O)c1C(F)(F)F [Compound 79D] | 0.00318 µM | 0.742 µM | 
19 | C[C@@H](COCCC(=O)N1CCN2c3ncc(C(F)(F)F)cc3C(O)CC2C1)Nc1cn[nH]c(=O)c1C(F)(F)F (some centres unmarked) [Compound 80] | 0.000946 µM |  | IC50 [1]: 0.151 µM
20 | C[C@H](COCCC(=O)N1CCN2c3ncc(Cl)cc3N(C)C(=O)[C@@H]2C1)Nc1cn[nH]c(=O)c1C(F)(F)F [Compound 82A] | 0.000744 µM | 0.0475 µM | clearance ([2]; plasma, single 3 mg/kg): 32 mL/min/kg; Vd ([2]; plasma, single 3 mg/kg, i.v.): 0.4 L/kg; bioavailability [2, 3]: 48%; AUC(0-t) ([2]; plasma, po, single 100 mg/kg): 26400 ng·h/mL; Cmax [2, 4]: 21700 ng/mL
21 | C[C@H](COCCC(=O)N1CCN2c3ncc(Cl)cc3N(C)C(=O)[C@H]2C1)Nc1cn[nH]c(=O)c1C(F)(F)F [Compound 82B] | 0.000892 µM | 0.0216 µM | 
22 | Cc1c(Cl)cnc2c1OCC[C@H]1CN(C(=O)CCOC[C@H](C)Oc3cn[nH]c(=O)c3C(F)(F)F)CCN21 [Compound 85B] | 0.00784 µM | 0.311 µM | 
23 | C[C@@H](COCCC(=O)N1CCN2c3ncc(C(F)(F)F)cc3SCC[C@@H]2C1)Oc1cn[nH]c(=O)c1C(F)(F)F [Compound 86A] | 0.0025 µM | 0.0119 µM | clearance ([2]; plasma, single 3 mg/kg): 54 mL/min/kg; Vd ([2]; plasma, single 3 mg/kg, i.v.): 1.4 L/kg; bioavailability [2, 3]: 66%; AUC(0-t) ([2]; plasma, po, single 100 mg/kg): 20300 ng·h/mL; Cmax [2, 4]: 7860 ng/mL
24 | C[C@@H](COCCC(=O)N1CCN2c3ncc(C(F)(F)F)cc3SCC[C@H]2C1)Oc1cn[nH]c(=O)c1C(F)(F)F [Compound 86B] | 0.0205 µM | 0.246 µM | 
25 | CN1C(=O)[C@@H]2CN(C(=O)CCOC[C@@H]3CCN3c3cn[nH]c(=O)c3C(F)(F)F)CCN2c2ncc(Cl)cc21 [Compound 88A] | 0.000416 µM | 0.00217 µM | 
26 | CN1C(=O)[C@H]2CN(C(=O)CCOC[C@@H]3CCN3c3cn[nH]c(=O)c3C(F)(F)F)CCN2c2ncc(Cl)cc21 [Compound 88B] | 0.000446 µM | 0.00294 µM | 
27 | O=C(CCOC[C@@H]1CCN1c1cn[nH]c(=O)c1C(F)(F)F)N1CCN2c3ncc(C(F)(F)F)cc3OC[C@@H]2C1 [Compound 89A] | 0.000696 µM | 0.0106 µM | 
28 | O=C(CCOC[C@@H]1CCN1c1cn[nH]c(=O)c1C(F)(F)F)N1CCN2c3ncc(C(F)(F)F)cc3OC[C@H]2C1 [Compound 89B] | 0.000658 µM | 0.00692 µM | 
29 | O=C(CCOC[C@@H]1CCN1c1cn[nH]c(=O)c1C(F)(F)F)N1CCn2c(cc3cc(C(F)(F)F)cnc32)C1 [Compound 91] | 0.000496 µM | 0.0113 µM | 
30 | Cc1c2n(c3ncc(C(F)(F)F)cc13)CCN(C(=O)CCOC[C@@H]1CCN1c1cn[nH]c(=O)c1C(F)(F)F)C2 [Compound 92] | 0.000686 µM | 0.00802 µM | 
31 | O=C(CCOC[C@@H]1CCN1c1cn[nH]c(=O)c1C(F)(F)F)N1CCN2c3ncc(C(F)(F)F)cc3C(F)(F)C[C@@H]2C1 [Compound 93A] | 0.00282 µM | 0.0156 µM | 
32 | O=C(CCOC[C@@H]1CCN1c1cn[nH]c(=O)c1C(F)(F)F)N1CCN2c3ncc(C(F)(F)F)cc3C(F)(F)C[C@H]2C1 [Compound 93B] | 0.00209 µM | 0.0104 µM | 
33 | CC(OCCC(=O)N1CCN2c3ncc(C(F)(F)F)cc3N(C)C(=O)C2C1)[C@@H]1CCN1c1cn[nH]c(=O)c1C(F)(F)F (some centres unmarked) [Compound 96] | 0.00327 µM |  | IC50 [1]: 0.0221 µM

— patent US20240336629A1, “Tricyclic Derivatives Useful As PARP7 Inhibitors” (JACOBIO PHARMACEUTICALS CO., LTD., priority 2021, published 2024)
